Measurements from paper PMC10541190 (The Journal of Clinical Investigation, 2023).
“And” between values parts separate entries of the source, which are not always exact repeats. Equal entries are not always repeated. Where two headings read alike, the source gives them in different places.

How the values were obtained:
ErbB1 = details: cited from earlier work
ErbB2 = details: cited from earlier work
MAP2K5 = details: cited from earlier work
ErbB1 (EGFR) = details: read-out: KD of binding or IC50 (nM), ErbB1; cited from earlier work
BLK = details: cited from earlier work
VEEV (TC-83) [1] = assay: microbe, parasite or virus in culture; assay type: cell-based; details: Venezuelan equine encephalitis virus, U-87 MG, read-out: EC50, VEEV (TC-83) infection
ErbB3 = details: cited from earlier work
ErbB4 [2] = details: cited from earlier work
SRMS = details: cited from earlier work
[3] = tested on: SARS-CoV-2 (USA-WA1/2020); assay: microbe, parasite or virus in culture; assay type: cell-based; details: Severe acute respiratory syndrome coronavirus 2, Calu-3, read-out: EC50, SARS-CoV-2 infection
BTK = details: cited from earlier work
JAK = details: cited from earlier work
in vitro [4] = details: human
in vitro [5] = details: human; remark: listed apart in the source
in vitro [6] = details: African green monkey
[7] = tested on: SARS-CoV-2 (USA-WA1/2020); assay: microbe, parasite or virus in culture; assay type: cell-based; details: for EC50: Severe acute respiratory syndrome coronavirus 2, Vero, 24 h, read-out: SARS-CoV-2 EC50
in vitro [8] = details: human, Huh7 cell viability (%)
[9] = tested on: SARS-CoV-2 (Belgium-GHB-03021); assay type: cell-based
ErbB4 [10] = biological target: T1, ErbB4 (Homo sapiens, UniProt Q15303); assay: biochemical; details: read-out: ErbB4 activity (%)
ErbB4 [11] = biological target: T1, ErbB4; details: read-out: KD of binding or IC50 (nM), ErbB4; cited from earlier work
Huh7 cells = details: human
U-87 MG cells = details: human
DENV2 = assay type: cell-based
VEEV (TC-83) [12] = assay type: cell-based

T1 sequence (Q15303 26-1308): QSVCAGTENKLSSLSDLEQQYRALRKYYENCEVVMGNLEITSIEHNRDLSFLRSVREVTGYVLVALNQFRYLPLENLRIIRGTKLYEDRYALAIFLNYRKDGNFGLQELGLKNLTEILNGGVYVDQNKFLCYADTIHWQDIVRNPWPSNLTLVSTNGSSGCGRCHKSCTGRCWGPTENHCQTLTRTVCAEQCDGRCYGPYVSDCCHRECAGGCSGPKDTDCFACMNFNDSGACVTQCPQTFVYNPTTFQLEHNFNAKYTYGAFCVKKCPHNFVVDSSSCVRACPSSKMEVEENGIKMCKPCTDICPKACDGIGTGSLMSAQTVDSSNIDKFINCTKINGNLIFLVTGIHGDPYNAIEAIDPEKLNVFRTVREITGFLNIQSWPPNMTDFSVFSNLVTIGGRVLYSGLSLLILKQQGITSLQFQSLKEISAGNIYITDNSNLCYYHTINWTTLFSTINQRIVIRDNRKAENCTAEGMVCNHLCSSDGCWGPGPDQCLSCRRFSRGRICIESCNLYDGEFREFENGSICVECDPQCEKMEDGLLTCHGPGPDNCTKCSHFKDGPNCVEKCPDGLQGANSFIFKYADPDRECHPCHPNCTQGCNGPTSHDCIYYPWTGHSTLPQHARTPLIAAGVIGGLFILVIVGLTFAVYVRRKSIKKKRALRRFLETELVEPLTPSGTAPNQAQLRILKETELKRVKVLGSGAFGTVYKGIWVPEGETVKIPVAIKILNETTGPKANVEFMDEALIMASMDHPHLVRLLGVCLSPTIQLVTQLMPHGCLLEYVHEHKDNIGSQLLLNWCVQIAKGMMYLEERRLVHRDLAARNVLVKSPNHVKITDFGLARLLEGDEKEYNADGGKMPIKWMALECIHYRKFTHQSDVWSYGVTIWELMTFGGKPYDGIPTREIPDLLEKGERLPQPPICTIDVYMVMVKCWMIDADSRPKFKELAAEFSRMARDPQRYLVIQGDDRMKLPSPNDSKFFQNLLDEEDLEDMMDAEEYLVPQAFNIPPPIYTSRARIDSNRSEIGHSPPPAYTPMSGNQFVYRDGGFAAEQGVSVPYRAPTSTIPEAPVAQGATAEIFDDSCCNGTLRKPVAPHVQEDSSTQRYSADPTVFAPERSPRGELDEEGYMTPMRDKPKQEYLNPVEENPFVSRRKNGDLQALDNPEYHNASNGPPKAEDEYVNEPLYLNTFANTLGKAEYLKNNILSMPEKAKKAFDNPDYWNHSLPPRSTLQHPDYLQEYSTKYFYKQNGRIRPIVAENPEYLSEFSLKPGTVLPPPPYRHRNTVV

C=CC(=O)N1CCC[C@@H](n2nc(-c3ccc(Oc4ccccc4)cc3)c3c(N)ncnc32)C1 [Ibrutinib]
% of control, ErbB1 (ErbB1): 1.8 nM 1.8% | % of control, ErbB2 (ErbB2): 12.1 nM 0% | Other targets: MAP2K5 (% of control) (MAP2K5): JAK (0%), BTK (0%), SRMS (0%), BLK (0.1%), ErbB3 (0.1%), MAP2K5 (0.2%) | IC50 (ErbB1 (EGFR)): 1.8 nM | Other targets: BLK (% of control) (BLK): JAK (0%), BTK (0%), SRMS (0%), BLK (0.1%), ErbB3 (0.1%), MAP2K5 (0.2%) | EC50 (VEEV (TC-83) [1]): 0.5 µM | Other targets: ErbB3 (% of control) (ErbB3): JAK (0%), BTK (0%), SRMS (0%), BLK (0.1%), ErbB3 (0.1%), MAP2K5 (0.2%) | % of control, ErbB4 (ErbB4 [2]): 1.0 nM 0% | Other targets: SRMS (% of control) (SRMS): JAK (0%), BTK (0%), SRMS (0%), BLK (0.1%), ErbB3 (0.1%), MAP2K5 (0.2%) | EC50 [3]: 0.8 µM | Other targets: BTK (% of control) (BTK): JAK (0%), BTK (0%), SRMS (0%), BLK (0.1%), ErbB3 (0.1%), MAP2K5 (0.2%) | Other targets: JAK (% of control) (JAK): JAK (0%), BTK (0%), SRMS (0%), BLK (0.1%), ErbB3 (0.1%), MAP2K5 (0.2%) | CC50 (in vitro [4]): > 20 µM | CC50 (in vitro [5]): > 20 µM

COc1ccc2cc1Oc1ccc(cc1)C[C@H]1c3cc(c(OC)cc3CCN1C)Oc1c(OC)c(OC)cc3c1[C@H](C2)N(C)CC3 [Tetrandrine, Berbaman, 6,6',7, 12-tetramethoxy-2,2'-dimethyl-, (1β)-]
CC50 (in vitro [6]): > 20 µM | EC50 [7]: 1.4 µM | viability at 3.33 µM (in vitro [8]): 93.9% | viability at 10 µM (in vitro [8]): 44% | viability at […] (in vitro [8]): 96.8% and 97% | Fluorescence (%area) [9]: 93.6 %area

CNC(=O)CN1CCC(Oc2cc3c(Nc4cccc(Cl)c4F)ncnc3cc2OC)CC1 [Sapitinib]
activity at 0.00305 µM (ErbB4 [10]): 37.7% | activity at 0.0274 µM (ErbB4 [10]): 10.2% | activity at 0.08 µM (ErbB4 [10]): 5.52% | activity at 0.25 µM (ErbB4 [10]): 2.84% | activity at 0.74 µM (ErbB4 [10]): 1.25% | activity at 2.22 µM (ErbB4 [10]): 2.36% | activity at 6.67 µM (ErbB4 [10]): 1.4% | activity at 20 µM (ErbB4 [10]): 1.27% | activity at 60 µM (ErbB4 [10]): 0% | activity at […] (ErbB4 [10]): 18.7% and 54.8% | IC50 (ErbB4 [11]): 1.4 nM | IC50 (ErbB1 (EGFR)): 12 nM | EC50 (VEEV (TC-83) [1]): 2.6 µM | EC50 [3]: 1.8 µM | CC50 (in vitro [4]): > 20 µM | viability (in vitro [4]; Calu-3 viability (%)): 82.2% | CC50 (in vitro [5]): > 20 µM

CCN(CC)CCNC(=O)c1c(C)[nH]c(/C=C2\C(=O)Nc3ccc(F)cc32)c1C [Sunitinib]
CC50 (in vitro [6]): 12.2 µM | viability at 2.5 µM (in vitro [6]; Cell viability (%), 2.5 μM): 68.8% | viability at 5 µM (in vitro [6]; Cell viability (%)): 66.1% | SARS-CoV-2 infection (%) ([7]; 0.5 μM): 94.03% and 125.37% and 116.42% | SARS-CoV-2 infection (%) ([7]; 1 μM): 116.42% and 85.07% and 94.03% | SARS-CoV-2 infection (%) ([7]; 5 μM): 16.57% and 14.33% and 15.67% | EC50 [7]: 2.4 µM | viability at 0.16 µM (in vitro [8]): 102% | viability at 0.63 µM (in vitro [8]): 99.8% | viability at 1.25 µM (in vitro [8]): 89.5% | viability at 10 µM (in vitro [8]): 59% | Huh7 cell viability (%) (Huh7 cells; 1.25 µM): 90.21% | Huh7 cell viability (%) (Huh7 cells; 2.5 µM): 75.37% | U-87 MG cell viability (%) (U-87 MG cells; 5 µM): 106.81% | viability at 0.25 µM (in vitro [5]; U-87 MG cell viability (%)): 118% | viability at 0.74 µM (in vitro [5]; U-87 MG cell viability (%)): 110% | viability at 2.5 µM (in vitro [5]; U-87 MG cell viability (%)): 106% | viability at 20 µM (in vitro [5]; U-87 MG cell viability (%)): 44.6%

CS(=O)(=O)CCNCc1ccc(-c2ccc3ncnc(Nc4ccc(OCc5cccc(F)c5)c(Cl)c4)c3c2)o1 [Lapati-nib]
viability at 20 µM (in vitro [6]; Cell viability (%)): 67% | SARS-CoV-2 infection (%) ([7]; 0.25 μM): 46.09% and 52.84% and 47.65% | SARS-CoV-2 infection (%) ([7]; 0.74 μM): 18.11% and 21.05% and 22.00% and 22.88% and 28.58% | SARS-CoV-2 infection (%) ([7]; 2.22 μM): 20.01% and 16.81% and 28.24% and 14.29% and 20.00% | U-87 MG cell viability (%) (U-87 MG cells; 0.37 µM): 129.28%

N#C[C@@]1(c2ccc3c(N)ncnn23)O[C@H](CO)[C@@H](O)[C@H]1O [GS-441524]
rescue of Vero-eGFP cells from SARS-CoV-2-induced lethality, dose response [9]: dose-dependent anti-SARS-CoV-2 activity

CC(=O)O[C@@H]1C[C@H]2C(C)(C)C(=O)C=C[C@]2(C)[C@H]2CC[C@@]3(C)[C@H](c4ccoc4)OC(=O)[C@H]4O[C@]43[C@@]21C [Gedunin]
CC50 (in vitro [6]): > 20 µM | viability at 0.625 µM (in vitro [6]; Cell viability (%), 0.625 μM): 107% | viability at 1.25 µM (in vitro [6]; Cell viability (%), 1.25 μM): 105% | viability at 5 µM (in vitro [6]; Cell viability (%)): 82.9% | viability at 20 µM (in vitro [6]; Cell viability (%)): 86.5% | SARS-CoV-2 infection (%) ([7]; 0.625 μM): 97.75% and 70.79% and 84.27% | SARS-CoV-2 infection (%) ([7]; 1.25 μM): 57.30% and 67.42% and 50.56% | SARS-CoV-2 infection (%) ([7]; 5 μM): 0.67% and 1.04% and 1.31% | SARS-CoV-2 infection (%) ([7]; 20 μM): 0.00337% | EC50 [7]: 1.4 µM | viability at 0.123 µM (in vitro [8]): 97.1% | viability at 0.37 µM (in vitro [8]): 97.4% | viability at 1.111 µM (in vitro [8]): 96.9% | viability at 3.333 µM (in vitro [8]): 94.3% | viability at 10 µM (in vitro [8]): 85% | Huh7 cell viability (%) (Huh7 cells; 0.37 µM): 96.29% | replication of DENV2 (DENV2): dose-dependently inhibited replication | Cell viability (%) (Vero cells; 0.625 μM): 106.58% and 104.74% | Cell viability (%) (Vero cells; 1.25 μM): 98.66% | Cell viability (%) (Vero cells; 5 μM): 83.37% and 75.82% | Cell viability (%) (Vero cells; 20 μM): 88.12% and 85.24% | replication of TC-83 (VEEV (TC-83) [12]): dose-dependently inhibited replication | viability at 0.37 µM (in vitro [5]; U-87 MG cell viability (%)): 81.9% | viability at 3.33 µM (in vitro [5]; U-87 MG cell viability (%)): 79.5% | viability at 10 µM (in vitro [5]; U-87 MG cell viability (%)): 75.7% | viability at […] (in vitro [5]; U-87 MG cell viability (%)): 79.1% and 86.8%

COc1c(O)cc2oc3cc(O)c(CC=C(C)C)c(O)c3c(=O)c2c1CC=C(C)C [Mangostin, 9H-Xanthen-9-one, 1,3,6-trihydroxy-7-methoxy-2,8-bis (3-methyl-2-butenyl)-]
Fluorescence (%area) [9]: 102.5 %area
